Experimental data published in patent publication US8501911B2, “Methods of reducing inflammation and mucus hypersecretion” (Biomarck Pharmaceuticals, Ltd, priority 1999, dated 2013).
“And” between values parts separate entries of the source, which are not always exact repeats. Equal values may be shown once. Residues, ends and D or L forms follow the SMILES beside them. *: point of attachment. Myristoyl = CCCCCCCCCCCCCC(=O)*

How the values were obtained:
[1] = tested on: canine neutrophils; test: MPO secretion from isolated canine neutrophils stimulated with PMA+8-Br-cGMP; type: cell-based
Method: Isolation of PMNs from canine blood—The steps involved in isolating PMN include collecting 10 ml ACD anticoagulated blood; then layering 5 ml on 3.5 ml PMN isolation media while ensuring that the PMN isolation media (IM) was at room temperature (RI). Next, the blood was centrifuged at room temperature for 30′, 550×g at 1700 RPMs. The low lower white band was transferred into a 15 ml conical centrifuge tube (CCFT). Next, 2V HESS with 10% fetal bovine serum […] was added and centrifuged at room temperature for 10′, 400×g at 1400 RPMs. The pellet was then resuspended in 5 ml 1-1ESS with PBS. The cell suspension was added to 50 ml CCFT containing 20 ml of ice cold 0.88% NH4 Cland inverted two to three times. The resulting product was centrifuged for 10′, 800×g at 2000 RPMs, then aspirated and resuspended in ml HBSS with FBS. The prep was examined by counting and cytospin and preferably for whole blood, the cell number should be between 10^9-10^11 cells and for PMNs, cell number should be between 2-4×10^7 cells. See generally, Wang et al., J. Immunol., “Neutrophil-induced changes in the biomechanical properties of endothelial cells: roles of ICAM-1 and reactive oxygen species,” 6487-94 (2000).
(§1) MPO Colorimetric Enzyme Assay—Samples were assayed for MPO activity in 96 well round bottom microtiter plates using a sandwich ELISA kit (R & D Systems, Minneapolis, Minn.). Briefly, 20 microliters of sample is mixed with 180 microliters of substrate mixture containing 33 mM potassium phosphate, pH 6.0, […], 0.11 mM hydrogen peroxide, and 0.36 mM O-Diannisidine Dihydrochloride in an individual microtiter well. The final concentrations in the assay mixture are: 30 mM potassium phosphate, pH 6.0, 0.05% Triton X-100, 0.1 mM hydrogen peroxide, and 0.32 mM O-Diannisidine Dihydrochloride. […] Samples were assayed in duplicate.

[2] = tested on: human bronchial epithelial cells; test: Basal (constitutive) mucin secretion by human bronchial epithelial cells; type: cell-based; settings: peptide 100 μM, one hour incubation, no PMA or 8-Br-cGMP
Method: Mucus secreted from the airway epithelial cells in vitro after stimulation by activators was assessed using an ELISA (antibody capture method) (E. Harlow, D. Lane. “Antibodies: A Laboratory Manual.” New York: Cold Spring Harbor Laboratory Press, 1988), wherein the collected mucus is bound directly to the ELISA plate. Mucus was detected using an antibody raised against monkey airway mucus (Lin et al. Am J Respir Cell Mol Biol 1:41, 1989).
The MANS peptide (100 μM) was also found to decrease constitutive (basal) mucus secretion by one hour incubation. Cells were treated as described above except that no PMA or 8-Br-cGMP was used. […] Results, designated as Results-M-1B, are presented as follows and show the inhibition of basal mucin secretion by human bronchial epithelial cells exposed to the MANS peptide (SEQ ID NO: 1) or a negative control peptide consisting of the same amino acids as the MANS peptide, but in random order (RNS peptide; random N-terminal sequence (SEQ ID NO: 26):
The effect of MA-PSD peptide (1, 10 and 100 μM) on basal mucin secretion was also measured. Cells as described above were incubated for one hour with the MA-PSD peptide (no PMA or 8-Br-cGMP).

[3] = tested on: NHBE cells; test: Cytotoxicity / metabolic activity of NHBE cells (LDH release, deoxyglucose uptake); type: cell-based, human; settings: peptide 1-100 μM
Method: In Results-I-2B-1 and Results-I-2B-2, the MANS peptide blocked mucin hypersecretion induced by PMA+8-Br-cGMP or UTP in a concentration-dependent manner. NHBE cells were preincubated with the indicated peptide for 15 min and then exposed to PMA (100 nM)+8-Br-cGMP (1 μM) for 15 min or UTP (100 μM) for 2 h. Mucin secretion was measured by ELISA.
Cytotoxicity Assay—All reagents used in treating NHBE cells were examined for cytotoxicity by measuring the total release of lactate dehydrogenase from the cells. The assay was carried out using the Promega Cytotox 96 Kit according to the manufacturer's instructions. All experiments were performed with reagents at non-cytotoxic concentrations.

[4] = tested on: human neutrophils; test: MPO secretion from isolated human neutrophils stimulated with PMA+8-Br-cGMP; type: cell-based
Method: as §1

[5] = tested on: LPS-primed human neutrophils; test: MPO secretion from LPS-primed human neutrophils; type: cell-based
Method: (§2) Results-I-11 and Results-I-12 show MPO secretion from LPS-primed human neutrophils as a model for humans, and Results-I-13, Results-I-14, and Results-I-15 show MPO secretion from LPS-primed canine neutrophils as a model for canines. In all of these experiments, isolated neutrophils were stimulated with LPS at a concentration of 1×10^−6 M for 10 minutes at 37° C. prior to adding the stimuli. The LPS primes the cells so they can respond to a secretagogue.
Thus, in one comparative experiment, when absorbance was monitored at 450 nm while observing MPO secretion from LPS-primed human neutrophils, Results-I-11 were obtained as follows.
In another comparative experiment, when absorbance was monitored at 450 nm while observing MPO secretion from LPS-primed human neutrophils, Results-I-12 were obtained as follows.
MPO Colorimetric Enzyme Assay—Samples were assayed for MPO activity in 96 well round bottom microtiter plates using a sandwich ELISA kit (R & D Systems, Minneapolis, Minn.). Briefly, 20 microliters of sample is mixed with 180 microliters of substrate mixture containing 33 mM potassium phosphate, pH 6.0, 0.56% Triton X-100, 0.11 mM hydrogen peroxide, and 0.36 mM O-Diannisidine Dihydrochloride in an individual microtiter well. […] After mixing, the assay mixture was incubated at room temperature for 5 minutes, and MPO enzyme activity determined spectrophotometrically at 550 nanometers. […]

[6] = tested on: LPS-primed canine neutrophils; test: MPO secretion from LPS-primed canine neutrophils; type: cell-based
Method: as §2
In another comparative experiment, when absorbance was monitored at 450 nm while observing MPO secretion from LPS-primed canine neutrophils, Results-I-13 were obtained as follows.
In another comparative experiment, when absorbance was monitored at 450 nm while observing MPO secretion from LPS-primed canine neutrophils, Results-I-14 were obtained as follows.
In another comparative experiment, when absorbance was monitored at 450 nm while observing MPO secretion from LPS-primed canine neutrophils, Results-I-15 were obtained as follows.
Isolation of PMNs from canine blood—The steps involved in isolating PMN include collecting 10 ml ACD anticoagulated blood; then layering 5 ml on 3.5 ml PMN isolation media while ensuring that the PMN isolation media (IM) was at room temperature (RI). Next, the blood was centrifuged at room temperature for 30′, 550×g at 1700 RPMs. The low lower white band was transferred into a 15 ml conical centrifuge tube (CCFT). Next, 2V HESS with 10% fetal bovine serum […] was added and centrifuged at room temperature for 10′, 400×g at 1400 RPMs. The pellet was then resuspended in 5 ml 1-1ESS with PBS. The cell suspension was added to 50 ml CCFT containing 20 ml of ice cold 0.88% NH4 Cland inverted two to three times. […]
MPO Colorimetric Enzyme Assay—Samples were assayed for MPO activity in 96 well round bottom microtiter plates using a sandwich ELISA kit (R & D Systems, Minneapolis, Minn.). […] After mixing, the assay mixture was incubated at room temperature for 5 minutes, and MPO enzyme activity determined spectrophotometrically at […]. […]

[7] = peptide 1 μM + 100 nM PMA+10 μM 8-Br-cGMP, unstimulated control 0.10
[8] = peptide 10 μM + 100 nM PMA+10 μM 8-Br-cGMP
[9] = peptide 1 μM + 100 nM PMA+10 μM 8-Br-cGMP, unstimulated control 0.076
[10] = peptide 100 μM + 100 nM PMA+10 μM 8-Br-cGMP

CCCCCCCCCCCCCC(=O)NCC(=O)N[C@H](C(=O)N[C@@H](C)C(=O)N1CCC[C@H]1C(=O)N[C@@H](C)C(=O)N[C@@H](C)C(=O)N[C@@H](CCC(=O)O)C(=O)NCC(=O)N[C@@H](C)C(=O)NCC(=O)N[C@@H](C)C(=O)N[C@@H](CCC(=O)O)C(=O)N[C@H](C(=O)N[C@@H](CCCCN)C(=O)N[C@@H](CCCNC(=N)N)C(=O)N[C@@H](C)C(=O)N[C@@H](CO)C(=O)N[C@@H](C)C(=O)N[C@@H](CCC(=O)O)C(=O)N[C@@H](C)C(=O)N[C@@H](CCCCN)C(=O)N[C@@H](CCC(N)=O)C(=O)N[C@@H](C)C(=O)N[C@@H](Cc1ccccc1)C(=O)O)C(C)C)[C@@H](C)O [RNS peptide, reference compound] (Myristoyl-GTAPAAEGAGAEVKRASAEAKQAF-OH; C-terminus assumed)
Absorbance at 450 nm (MPO secretion) [1, 7]: 0.32 | Absorbance at 450 nm (MPO secretion) [1, 8]: 0.30 | Basal mucin secretion level relative to control [2]: 90% | Lactate dehydrogenase release [3]: neither the MANS nor the RNS peptide affected | [3H]deoxyglucose uptake [3]: neither the MANS nor the RNS peptide affected | Absorbance at 450 nm (MPO secretion) [4, 9]: 0.099 | Absorbance at 450 nm (MPO secretion) [4, 8]: 0.100 | Absorbance at 450 nm (MPO secretion) [4, 10]: 0.100

CCCCCCCCCCCCCC(=O)O[C@@H]1[C@@H](C)[C@@]2(O)[C@@H](C=C(CO)C[C@]3(O)C(=O)C(C)=C[C@@H]23)[C@@H]2C(C)(C)[C@]12OC(C)=O [PMA, phorbol 12-myristate 13-acetate]
Absorbance reading at 450 nm (MPO secretion) ([5]; 10 nM PMA, medium control 0.15): 0.19 | Absorbance reading at 450 nm (MPO secretion) ([6]; 100 nM PMA alone): 0.078 and 0.0825

CCCCCCCCCCCCCC(=O)NCC(=O)N[C@@H](C)C(=O)N[C@@H](CCC(N)=O)C(=O)N[C@@H](Cc1ccccc1)C(=O)N[C@@H](CO)C(=O)N[C@@H](CCCCN)C(=O)N[C@H](C(=O)N[C@@H](C)C(=O)N[C@@H](C)C(=O)N[C@@H](CCCCN)C(=O)NCC(=O)N[C@@H](CCC(=O)O)C(=O)N[C@@H](C)C(=O)N[C@@H](C)C(=O)N[C@@H](C)C(=O)N[C@@H](CCC(=O)O)C(=O)N[C@@H](CCCNC(=N)N)C(=O)N1CCC[C@H]1C(=O)NCC(=O)N[C@@H](CCC(=O)O)C(=O)N[C@@H](C)C(=O)N[C@@H](C)C(=O)N[C@H](C(=O)N[C@@H](C)C(=O)O)C(C)C)[C@@H](C)O [MANS peptide] (Myristoyl-GAQFSKTAAKGEAAAERPGEAAVA-OH; C-terminus assumed)
Absorbance at 450 nm (MPO secretion) [1, 7]: 0.25 | Absorbance at 450 nm (MPO secretion) [1, 8]: 0.09 | Basal mucin secretion level relative to control [2]: 28% | Lactate dehydrogenase release [3]: neither the MANS nor the RNS peptide affected | [3H]deoxyglucose uptake [3]: neither the MANS nor the RNS peptide affected | Absorbance at 450 nm (MPO secretion) [4, 9]: 0.102 | Absorbance at 450 nm (MPO secretion) [4, 8]: 0.093 | Absorbance at 450 nm (MPO secretion) [4, 10]: 0.068

Nc1nc2c(nc(Br)n2[C@@H]2O[C@@H]3COP(=O)(O)O[C@H]3[C@H]2O)c(=O)[nH]1 [8-Br-cGMP]
Absorbance reading at 450 nm (MPO secretion) ([5]; cGMP alone, concentration not given): 0.155 | Absorbance reading at 450 nm (MPO secretion) ([6]; 8-Br-cGMP 1 micromolar alone): approximately 0.078 | Absorbance reading at 450 nm (MPO secretion) ([6]; 8-Br-cGMP 10 micromolar alone): approximately 0.0835
